Assay results: article PMC10565663, “^177Lu-labeled PSMA targeting therapeutic with optimized linker for treatment of disseminated prostate cancer; evaluation of biodistribution and dosimetry” (Frontiers in Oncology, 2023)
“And” between values parts separate entries of the source, which are not always exact repeats. Equal entries are not always repeated.

Experiments:
[1] = biological target: T1, PSMA-expressing PC3-pip cells (Homo sapiens, UniProt Q04609); assay: In vitro binding specificity test (PSMA saturation with unlabeled compound); conditions: 1 nM radiolabeled compound, 100-fold molar excess unlabeled, 1 h 37°C
T1 construct: expressed in transfected cells; host or cells: PC3-pip (PSMA-transfected PC-3 human prostate cancer cells), provided by Prof; M. Pomper, Johns Hopkins University
Procedure: The human prostate cancer cell line PC-3 was purchased from the American Type Culture Collection (ATCC; LGC Promochem, Borås, Sweden). The cells were cultured in Roswell Park Memorial Institute (RPMI) 1640 medium supplemented with 10% fetal bovine serum (FBS), 2 mM L-glutamine, penicillin 100 IU/mL and 100 µg/mL streptomycin at 37°C and 5% CO2 atmosphere. The PSMA-transfected and overexpressing variant of PC3 cell line, PC3-pip, was provided by Prof. M. Pomper, Department of Radiology, the Johns Hopkins University, Baltimore, MD, US. PC3-pip cells were cultured in two types of RPMI media. The first one contained 20% fetal bovine serum, 1% of L-glutamine (5 mL) and 1% of PEST (penicillin and streptomycin 5 mL). The second one contained 20% fetal bovine serum, 1% of L-glutamine (5 mL) and 1% of PEST (penicillin and streptomycin 5 mL) and 10 μg/mL of pyramycin. The second media is used every second passage to maintain clone selection. All in vitro experiments were performed in triplicates. For a typical experiment, cells were seeded one day before the experiment in Petri dishes (35 mm) in the amount of 1×10^6 cell/dish.
[…] specificity was tested using a saturation method. Before the experiment, cells were washed with PBS solution. […] Cell-associated activity was measured using gamma-counter and presented as the percentage of added activity.

[2] = biological target: T2, PSMA-expressing PC-3pip prostate cancer cells (Homo sapiens, UniProt Q04609); assay: Half-maximal inhibitory concentration: inhibition of [^111In]In-PSMA-617 binding; conditions: vs [^111In]In-PSMA-617 (1 nM); PC3-pip cells; 4°C, 4 hours
T2 construct: expressed in transfected cells; host or cells: PC3-pip (PSMA-transfected PC-3 human prostate cancer cells), provided by Prof; M. Pomper, Johns Hopkins University
Procedure: For the determination of a half-maximal inhibitory concentration (IC50), PSMA-617 was labeled with indium-111. For this purpose, 2 nmol PSMA-617 were dissolved in 40 µL 0.2 M ammonium acetate, pH 5.5, and 12 µL (10 MBq) of [^111In]InCl3 solution in 0.01 M HCl was added. The mixture was vortexed and incubated at 85 °C for 30 min. The yield was determined using iTLC eluted with 0.2 M citric acid, pH 2.0. Since the radiochemical yield was over 98%, [^111In]In-PSMA-617 was used in further experiments without purification.
For determination of IC50, BQ7876 and PSMA-617 were loaded with non-radioactive Lu of natural isotopic composition (^natLu) by incubation with a three-fold molar excess of ^natLuCl3 at 85 °C for 30 min in 0.2 M ammonium acetate, pH 5.5. Cells were washed with a PBS solution and incubated at 4°C for 4 hours with [^111In]In-PSMA-617 (1 nM) in the presence of increasing concentrations (range 0 to 2 μM) of competitors, ^natLu-BQ7876 or ^natLu-PSMA-617. Thereafter, cells were detached, collected, and cell-associated activity was measured using gamma-counter. The half-maximal inhibitory concentration was calculated using GraphPad software (version 9.3.1 for Windows, GraphPad Software, LLC. CA, USA).

PC3-pip xenografts [3] = assay: microSPECT/CT imaging of mice bearing PC3-pip xenografts; format: in vivo, Balb/c nu/nu mice; conditions: 3 h pi, 80 pmol/mouse
Procedure: To confirm the biodistribution data, imaging of mice bearing PC3-pip xenografts was performed. The mice were injected with [^177Lu]Lu-BQ7876 (900 kBq/mouse, 80 pmol/mouse) or [^177Lu]Lu-PSMA-617 (1200 kBq/mouse, 80 pmol/mouse). Imaging was performed at 3 h pi using nanoScan SPECT/CT (Mediso Medical Imaging Systems, Hungary) according to the protocol describe earlier ([25]).

PC3-pip xenografts [4] = assay: Biodistribution in mice bearing PSMA-positive PC3-pip xenografts; format: in vivo, Balb/c nu/nu mice; conditions: 3 h p.i.; PC3-pip xenograft mice; n=4
Procedure: To prepare xenografts, PC3-pip and PC3 (PSMA-negative control) cells (10^7 cells in 100 μL of media) were subcutaneously injected in the hind legs of female Balb/c nu/nu mice. At the time of the experiment, the average mouse weight was 18 ± 2 g. The average tumor weight was 0.2 ± 0.1 g.
Biodistribution of [^177Lu]Lu-BQ7876 was determined at 1, 3, 24, 48 and 130 hours p.i. Mice were injected with [^177Lu]Lu-BQ7876 (280 kBq/mouse). The amount of substance was adjusted to 80 pmol/mouse using unlabeled substance. A group of four animals per data point was used. The labeled peptide was injected into the tail vein. Mice were anaesthetized by a lethal intraperitoneal injection of ketamine and xylazine mixture solution (the dose of ketamine was 250 mg/kg and the dose of xylazine was 25 mg/kg) and sacrificed. Mice were exsanguinated by heart puncture using a heparinized syringe under anaesthesia. Organs and tissues were excised and weighed, and the activity of each organ was measured. The percentage of injected dose per gram of sample (%ID/g) was calculated. Activity in the rest of the gastrointestinal tract was measured to estimate hepatobiliary excretion. The rest of the body was also collected and its activity was measured. […]

[5] = parameters: method as in Kuo et al. 2018; conditions: humans; extrapolated from mouse biodistribution; ref Kuo et al. 2018; cited from earlier work
PC3-pip cells = assay: Cellular processing and internalization (acid wash method); format: cell-based, human; conditions: 2 nM, after 24 h of continuous incubation at 37°C
Procedure: Internalization of radiolabeled PSMA binders was evaluated using an acid wash method ([21]). PC3-pip cells were incubated with 2 nM of [^177Lu]Lu-BQ7876 or [^177Lu]Lu-PSMA-617 in RPMI medium at 37°C (5% of CO2). At predetermined time points (1, 2, 6 and 24 h), cells were treated with 0.5 mL of 4 M urea solution in a 0.2 M glycine buffer, pH 2.5, for 5 minutes on ice. After that, the acidic supernatant was collected and this fraction was considered to be a membrane-bound activity. To lyse the cells, 0.5 mL of 1 M sodium hydroxide solution was added and incubated at 37°C for at least 20 min. Alkaline-containing solution was collected, and the basic fraction was considered to be an internalized activity. Samples were measured using gamma-counter.

T1 sequence (Q04609 whole entry): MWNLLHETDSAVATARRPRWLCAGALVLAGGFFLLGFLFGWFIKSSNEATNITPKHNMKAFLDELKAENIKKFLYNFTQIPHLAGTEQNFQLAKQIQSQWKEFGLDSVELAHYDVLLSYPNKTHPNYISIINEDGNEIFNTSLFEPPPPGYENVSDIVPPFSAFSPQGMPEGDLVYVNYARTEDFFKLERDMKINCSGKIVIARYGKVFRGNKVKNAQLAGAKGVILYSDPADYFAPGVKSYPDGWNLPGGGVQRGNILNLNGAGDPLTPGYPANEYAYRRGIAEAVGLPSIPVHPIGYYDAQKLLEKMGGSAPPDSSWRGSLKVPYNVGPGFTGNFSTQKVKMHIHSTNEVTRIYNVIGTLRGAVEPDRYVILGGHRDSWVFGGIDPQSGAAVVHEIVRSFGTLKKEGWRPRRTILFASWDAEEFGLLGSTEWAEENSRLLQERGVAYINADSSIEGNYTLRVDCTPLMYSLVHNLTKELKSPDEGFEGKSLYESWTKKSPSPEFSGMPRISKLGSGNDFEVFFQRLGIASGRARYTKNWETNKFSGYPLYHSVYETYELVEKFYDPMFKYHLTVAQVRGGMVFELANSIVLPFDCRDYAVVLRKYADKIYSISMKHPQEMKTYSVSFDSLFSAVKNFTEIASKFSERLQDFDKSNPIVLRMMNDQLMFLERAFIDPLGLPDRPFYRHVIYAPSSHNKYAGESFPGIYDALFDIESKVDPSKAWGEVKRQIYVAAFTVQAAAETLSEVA
T2 sequence (Q04609 whole entry): as above

O=C([O-])CN1CCN(CC(=O)[O-])CCN(CC(=O)NC[C@H]2CC[C@H](C(=O)N[C@@H](Cc3ccc4ccccc4c3)C(=O)NCCCC[C@H](NC(=O)N[C@@H](CCC(=O)O)C(=O)O)C(=O)O)CC2)CCN(CC(=O)[O-])CC1.[111In+3] [[^111In]In-PSMA-617]
Binding of labeled compound to cells after saturation of PSMA with large excess of unlabeled compound [1]: highly significant (p< 5 x 10^-6) reduction of binding

O=C([O-])CN1CCN(CC(=O)[O-])CCN(CC(=O)NC[C@H]2CC[C@H](C(=O)N[C@@H](Cc3ccc4ccccc4c3)C(=O)NCCCC[C@H](NC(=O)N[C@@H](CCC(=O)O)C(=O)O)C(=O)O)CC2)CCN(CC(=O)[O-])CC1.[Lu+3] [^natLu-PSMA-617]
IC50 [2]: 61 nM and 60 nM

O=C([O-])CN1CCN(CC(=O)[O-])CCN(CC(=O)NC[C@H]2CC[C@H](C(=O)N[C@@H](Cc3ccc4ccccc4c3)C(=O)NCCCC[C@H](NC(=O)N[C@@H](CCC(=O)O)C(=O)O)C(=O)O)CC2)CCN(CC(=O)[O-])CC1.[177Lu+3] [[^177Lu]Lu-PSMA-617]
Activity accumulation in microSPECT/CT imaging (PC3-pip xenografts [3]): accumulated avidly in tumors
Uptake in blood (PC3-pip xenografts [4]): 0.06±0.02 %IA/g
Uptake in bone (PC3-pip xenografts [4]): 0.11±0.02 %IA/g
Uptake in heart (PC3-pip xenografts [4]): 0.08±0.07 %IA/g
Uptake in kidney (PC3-pip xenografts [4]): 9±3 %IA/g
Uptake in liver (PC3-pip xenografts [4]): 0.24±0.02 %IA/g
Uptake in lung (PC3-pip xenografts [4]): 0.21±0.07 %IA/g
Uptake in muscle (PC3-pip xenografts [4]): 0.07±0.02 %IA/g
Uptake in pancreas (PC3-pip xenografts [4]): 0.09±0.04 %IA/g
Uptake in salivary gland (PC3-pip xenografts [4]): 0.12±0.04 %IA/g
Uptake in spleen (PC3-pip xenografts [4]): 0.5±0.3 %IA/g
Uptake in tumor (PC3-pip xenografts [4]): 12±3 %IA/g
Binding of labeled compound to cells after saturation of PSMA with large excess of unlabeled compound [1]: highly significant (p< 5 x 10^-6) reduction of binding
Absorbed dose, adrenals [5]: 7.64E-03 mGy/MBq
Absorbed dose, brain [5]: 4.32E-04 mGy/MBq
Absorbed dose, gallbladder wall [5]: 8.76E-04 mGy/MBq
Absorbed dose, heart wall [5]: 1.00E-03 mGy/MBq
Absorbed dose, kidneys [5]: 1.11E-01 mGy/MBq
Absorbed dose, liver [5]: 1.37E-03 mGy/MBq
Absorbed dose, lungs [5]: 1.81E-03 mGy/MBq
Absorbed dose, osteogenic cells [5]: 8.30E-04 mGy/MBq
Absorbed dose, pancreas [5]: 7.60E-04 mGy/MBq
Absorbed dose, prostate [5]: 1.17E-03 mGy/MBq
Absorbed dose, red marrow [5]: 7.59E-04 mGy/MBq
Absorbed dose, small intestine [5]: 1.72E-03 mGy/MBq
Absorbed dose, spleen [5]: 4.42E-03 mGy/MBq
Absorbed dose, stomach wall [5]: 1.69E-03 mGy/MBq
Absorbed dose, testes [5]: 1.05E-03 mGy/MBq
Absorbed dose, thymus [5]: 7.19E-04 mGy/MBq
Absorbed dose, thyroid [5]: 7.11E-04 mGy/MBq
Absorbed dose, total body [5]: 1.70E-03 mGy/MBq

O=C(O)CC[C@H](NC(=O)N[C@@H](CCCCNC(=O)[C@H](Cc1ccc2ccccc2c1)NC(=O)[C@H]1CC[C@H](CNC(=O)CN2CCN(CC(=O)O)CCN(CC(=O)O)CCN(CC(=O)O)CC2)CC1)C(=O)O)C(=O)O [PSMA-617]
internalized fraction of the total cell-associated activity (PC3-pip cells): 10.0 ± 2.9%
